Assay results from patent US20200352918A1, “COMPOUNDS AND METHODS FOR TREATING OR PREVENTING FIBROSIS” (priority 2019, published 2020).
“Also recorded” adds a separate entry of the source.

Columns and labels:
[1] = test system: iFA model; experiment: Fibrotic marker, cytokine and repair modulator expression in the iFA model (qPCR, immunoblotting, luminex, immunofluorescence); type: cell-based, human
Description: The Milliplex human cytokine/chemokine Panel IV, human TIMP Panel 2, and human TGFβ 1,2,3 magnetic bead kits (EMD Millipore) were used per manufacturer's instructions. Prior to plating, all samples tested for human TGFβ only were activated and neutralized with 1.0 N HCl and 1.0 N NaOH, respectively. Briefly, 25 μl of undiluted or treated cell culture supernatant samples were mixed with 25 μl of magnetic beads and allowed to incubate overnight at 4° C. while shaking. After washing the plates with wash buffer in a Biotek ELx405 washer, 25 μl of biotinylated detection antibody was added and incubated for 1 hour at room temperature while shaking. 25 μl of streptavidin-phycoerythrin conjugate was then added to the reaction mixture and incubated for another 30 minutes at room temperature while shaking. Following additional washes, beads were resuspended in sheath fluid, and fluorescence was quantified using a Luminex 200 instrument. Similarly, a custom magnetic Luminex assay kit of select analytes (R&D Systems) was used per manufacturer's instructions. Cell culture supernatants were prepared with a 2-fold dilution. 50 μl of diluted sample were added to 50 μl of provided micro-particle cocktail and incubated for 2 hours at room temperature while shaking. After washing with wash buffer, 50 μl of biotin antibody cocktail was added and incubated for 1 hour at room temperature while shaking. Following additional washes, 50 μl of diluted Streptavidin-PE was then added for incubation for 30 minutes at room temperature while shaking. The plate was then washed again and the micro-particles resuspended in 100 μl wash buffer. After an additional 2-minute incubation while shaking, the data was acquired using a Luminex 200 instrument.
In-vitro cultures of PF and cells in the iFA model were washed once with PBS and total RNA from the samples were extracted using the RNeasy Mini Kit (Qiagen) according to the manufacturer's instructions. For the lung slice cultures (LSC), tissues were snap-frozen after treatment and stored at −80° C. until RNA isolation. Lung slices were homogenized using a handheld homogenizer and passing the homogenate through a Qiashredder (Qiagen). Total RNA from the LSC and cells from the disease model were extracted using the RNeasy Mini Kit (Qiagen) according to the manufacturer's instructions. The RNA concentrations were measured on a NanoDrop ND-1000 spectrophotometer. Single-stranded cDNA was synthesized from 200 ng of total RNA using Superscript IV and random hexamer primers (Invitrogen) in a volume of 20 μl. cDNA was then used for qRT-PCR analysis. PCR reactions were performed using Taqman Gene Expression Assay mix (Applied Biosystems) according to the manufacturer's instructions.
qRT-PCR reactions were performed using the StepOnePlus (Applied Biosystems). Relative gene expression was calculated using the 2^−ΔΔCt method, with 18S Cat. #4331182 (Invitrogen) as housekeeping gene. For the RT^2qPCR arrays, cDNA from DMSO and AA5 treated iFA and was added to the RT^2 qPCR iTaq Universal SYBR green Master Mix (Biorad). 20 μl of the experimental cocktail was added to each well of the Fibrosis PCR (Qiagen). Real-Time PCR was performed on the StepOnePlus qPCR system (Applied Biosystems) using SYBR green detection according to the manufacturer's recommendations. All data from the PCR was collected and analyzed by SA Bioscience's PCR Array Data Analysis Web Portal.
Cells grown on coverslips were fixed in 4% paraformaldehyde (PFA) for 10 min at room temperature and washed three times with TBS buffer supplemented with 0.1% Tween 20 (TBST). Lung samples were fixed overnight in 4% PFA at room temperature, washed 3 times in PBS, dehydrated and then infiltrated and embedded with wax. Five-micron sections were collected on glass slides, deparaffinized and rehydrated. Heat-induced epitope retrieval was performed using 1 mM EDTA in a microwave. […]

[2] = test system: iFA model; experiment: Proliferation by EdU labeling in the iFA model; type: cell-based, human; details: AA5-prevention vs DMSO, 6 h EdU
Description: Cells were incubated with 10 μM EdU (Invitrogen) at specified time points of culture for 6 hrs, fixed with 4% PFA, and detected by staining with Alexa594-azide according to the manufacturer's instructions. The cells were additionally counterstained with Vimentin and/or α-SMA and DAPI.

With Cc1c(C(=O)Nc2nc3ccccc3s2)sc2nc3cc4c(cc3cc12)OCO4 [AA5] the “Secreted levels of acute-phase response cytokines IL-6, IL-8 and IFNα” value ([1]; AA5-prevention and AA5-resolution, luminex) was “increase”, the PTX3 protein ([1]; AA5-prevention and AA5-resolution, over time) was “progressively increasing amounts” and the “Acute-phase signaling secondary cytokines MCP-3, VEGF, CSF3 and GRO” value ([1]; AA5 treated iFA model) was “increase”. The “Gene expression of fibrotic markers α-SMA, Collagen I, TIMP-3 and POSTN” value ([1]; AA5 treatment, confirmed by immunoblotting, luminex, immunofluorescence) was “down-regulation”, the “Modulators of tissue repair PTX3 and CD163L1” value ([1]; within 24 hours of AA5-resolution treatment) was “upregulation” and the “Proliferation (EdU)” value [2] was “no effect on proliferation; also recorded: did not display any significant difference in the proliferation rate”.
